≈ marks a conversion by molar mass, not a printed value. Calls of active or inactive are those of the source. The calls are words filed in the database; no cut-off is given here.
Species: Bos taurus
Experiment: Inhibition of bovine thymocytes protein tyrosine kinase assessed as angiotensin 1 phosphorylation

Structure (SMILES): O=C(O)/C=C/c1ccc(O)cc1
- ID50: 450 µg/mL (≈ 2740 µM)

Structure (SMILES): C[C@H]1O[C@@H](Oc2c(-c3cc(O)c(O)c(O)c3)oc3cc(O)cc(O)c3c2=O)[C@@H](O)[C@@H](O)[C@@H]1O
- ID50: > 500 µg/mL

Structure (SMILES): COc1ccc(-c2coc3cc(O)cc(O)c3c2=O)cc1
- ID50: > 500 µg/mL

Structure (SMILES): COc1ccc(-c2cc(=O)c3c(O)cc(OC)cc3o2)cc1
- ID50: > 500 µg/mL

Structure (SMILES): O=C1C[C@@H](c2ccc(O)cc2)Oc2cc(O)cc(O)c21
- ID50: 80 µg/mL (≈ 294 µM)

Structure (SMILES): O=c1c(O)c(-c2cc(O)c(O)c(O)c2)oc2cc(O)ccc12
- ID50: 7 µg/mL (≈ 23.2 µM)

Structure (SMILES): O=C1CC(c2ccccc2)Oc2cc(O)ccc21 (stereo not drawn)
- ID50: > 500 µg/mL

Structure (SMILES): O=C1c2ccc(O)cc2O[C@H](c2ccc(O)c(O)c2)[C@H]1O
- ID50: > 500 µg/mL

Structure (SMILES): O=c1c(O)c(-c2ccc(O)c(O)c2)oc2cc(O)ccc12
- ID50: 35 µg/mL (≈ 122 µM)

Structure (SMILES): O=c1c(-c2ccc(O)cc2)coc2cc(O)cc(O)c12
- ID50: > 500 µg/mL

Structure (SMILES): COc1ccc(-c2oc3cc(O)cc(O)c3c(=O)c2OC)cc1
- ID50: > 500 µg/mL

Structure (SMILES): COc1cc(/C=C/C(=O)O)ccc1O
- ID50: 350 µg/mL (≈ 1800 µM)

Structure (SMILES): O=c1cc(-c2ccc(O)cc2)oc2cc(O)cc(O)c12
- ID50: 90 µg/mL (≈ 333 µM)

Structure (SMILES): O=c1c(-c2ccc(O)cc2)coc2cc(O)c(O)cc12
- ID50: > 500 µg/mL

Structure (SMILES): O=c1cc(-c2ccccc2)oc2ccc3ccccc3c12
- Activity: inactive

Structure (SMILES): COc1ccc(-c2cc(=O)c3c(O)cc(O)cc3o2)cc1
- ID50: 300 µg/mL (≈ 1060 µM)

Structure (SMILES): O=c1c(O)c(-c2cc(O)c(O)c(O)c2)oc2cc(O)cc(O)c12
- ID50: 11 µg/mL (≈ 34.6 µM)

Structure (SMILES): O=c1c(O)c(-c2ccc(O)c(O)c2)oc2cc(O)cc(O)c12
- ID50: 11 µg/mL (≈ 36.4 µM)

Structure (SMILES): COc1ccc(-c2oc3cc(OC)cc(O)c3c(=O)c2OC)cc1
- ID50: > 500 µg/mL

Structure (SMILES): O=C1c2c(O)cc(O)cc2O[C@H](c2ccc(O)c(O)c2)[C@H]1O
- ID50: 270 µg/mL (≈ 887 µM)

Structure (SMILES): COc1cc(C(=O)O)cc(OC)c1O
- ID50: > 500 µg/mL

Structure (SMILES): O=C1C[C@@H](c2ccccc2)Oc2cc(O)cc(O)c21
- ID50: > 500 µg/mL

Structure (SMILES): COc1ccc(-c2cc(=O)c3c(O)c(OC)c(O)c(OC)c3o2)cc1
- ID50: 48 µg/mL (≈ 139 µM)
